Reference: patent publication US6706663B2, “Herbicidal 3-heterocyclic substituted benzisothiazole and benzisoxazole compounds” (Wyeth, priority 2000, dated 2004)

Key:
[1] = test system: GLXMA (Soybean); test: Preemergence herbicidal evaluation; format: in vivo, Glycine max, (L.) Merr.; conditions: rated 4-5 weeks after treatment
[2] = test system: GLXMA (Soybean); test: Postemergence herbicidal evaluation; format: in vivo, Glycine max, (L.) Merr.; conditions: for GLXMA herbicidal rating: postemergence
Protocol: In the tests, seedling plants are grown in jiffy flats for about two weeks. The test compounds are dispersed in 50/50 acetone/water mixtures containing 0.5% TWEEN® 20, a polyoxyethylene sorbitan monolaurate surfactant of Atlas Chemical Industries, in sufficient quantities to provide the equivalent of about 0.0040 kg to 1.000 kg per hectare of active compound when applied to the plants through a spray nozzle operating at 40 psi for a predetermined time. After spraying, the plants are placed on greenhouse benches and are cared for in accordance with conventional greenhouse procedures. From four to five weeks after treatment, the seedling plants are examined and rated according to the rating system set forth below. Where more than one test is involved for a given compound, the data are averaged.
Results of herbicide evaluation are expressed on a rating scale (0-9). The scale is based upon a visual observation of plant stand, vigor, malformation, size, chlorosis and overall plant appearance as compared with a control.

[3] = preemergence, rate 0.0620 kg/ha
[4] = preemergence, rate 0.1250 kg/ha
[5] = preemergence, rate 0.2500 kg/ha

Row | Compound | Preemergence herbicidal rating GLXMA [1, 3] | Preemergence herbicidal rating GLXMA [1, 4] | Preemergence herbicidal rating GLXMA [1, 5] | other results
1 | Cn1c(C(F)(F)F)cc(=O)n(-c2ccc3snc(C4OCC(CS(C)(=O)=O)O4)c3c2)c1=O (single isomer, unassigned) [Compound 86, 1-methyl-3-[3-[4-[(methylsulfonyl)methyl]-1,3-dioxolan-2-yl]-1,2-benzisothiazol-5-yl]-6-(trifluoromethyl)uracil] | 5.0 | 9.0 | 9.0 | 
2 | Cn1c(C(F)(F)F)cc(=O)n(-c2ccc3snc(C4OCC(CS(C)(=O)=O)O4)c3c2)c1=O (single isomer, unassigned) [Compound 87, 1-methyl-3-[3-[4-[(methylsulfonyl)methyl]-1,3-dioxolan-2-yl]-1,2-benzisothiazol-5-yl]-6-(trifluoromethyl)uracil] | 9.0 | 9.0 | 9.0 | 
3 | Cc1ccsc1-c1nsc2ccc(-n3c(=O)cc(C(F)(F)F)n(C)c3=O)cc12 [Compound 4, 1-methyl-3-[3-(3-methyl-2-thienyl)-1,2-benzisothiazol-5-yl]-6-(trifluoromethyl)uracil] |  |  |  | Postemergence herbicidal rating, GLXMA ([2]; rate 0.0320 kg/ha): 9.0
4 | Cn1c(C(F)(F)F)cc(=O)n(-c2ccc3snc(C4OCCO4)c3c2)c1=O [Compound 45, 3-[3-(1,3-dioxolan-2-yl)-1,2-benzisothiazol-5-yl]-1-methyl-6-(trifluoromethyl)uracil] |  |  |  | Preemergence herbicidal rating GLXMA ([1]; Rate 0.0620 kg/ha): 9.0; Preemergence herbicidal rating GLXMA ([1]; Rate 0.1250 kg/ha): 9.0; Preemergence herbicidal rating GLXMA ([1]; Rate 0.2500 kg/ha): 9.0
5 | Cn1c(C(F)(F)F)cc(=O)n(-c2cc3c(C4OCCO4)nsc3cc2F)c1=O [Compound 61, 3-[3-(1,3-dioxolan-2-yl)-6-fluoro-1,2-benzisothiazol-5-yl]-1-methyl-6-(trifluoromethyl)uracil] |  |  |  | GLXMA herbicidal rating ([2]; rate 0.0320 kg/ha): 8.5; GLXMA herbicidal rating ([2]; rate 0.0620 kg/ha): 8.5
6 | CSCC1COC(c2nsc3ccc(-n4c(=O)cc(C(F)(F)F)n(C)c4=O)cc23)O1 (stereo not drawn) [Compound 84, 1-methyl-3-[3-[4-[(methylthio)methyl]-1,3-dioxolan-2-yl]-1,2-benzisothiazol-5-yl]-6-(trifluoromethyl)uracil] | 9.0 | 9.0 | 9.0 | 
7 | Cn1c(C(F)(F)F)cc(=O)n(-c2ccc3snc(C4OCC(C[S+](C)[O-])O4)c3c2)c1=O (stereo not drawn) [Compound 88, 1-methyl-3-[3-[4-[(methylsulfinyl)methyl]-1,3-dioxolan-2-yl]-1,2-benzisothiazol-5-yl]-6-(trifluoromethyl)uracil] | 9.0 | 9.0 | 9.0 | 
